Among the data in BindingDB's records for doi:10.1021/jm0496335 (2005) are IC50 values, retold here.

The structures appear in SMILES notation. Several values for one entry are separate records, joined by “and”; a condition that tells them apart may be missing. Equal entries are not always repeated.

The assay concerns the target Somatostatin receptor type 2 (Mus musculus, UniProt P30875). Description: Inhibition of [125I][Leu8,D-Trp22,[…]]somatostatin-28 binding to somatostatin receptor 2.

Somatostatin receptor type 2, sequence (P30875 whole entry): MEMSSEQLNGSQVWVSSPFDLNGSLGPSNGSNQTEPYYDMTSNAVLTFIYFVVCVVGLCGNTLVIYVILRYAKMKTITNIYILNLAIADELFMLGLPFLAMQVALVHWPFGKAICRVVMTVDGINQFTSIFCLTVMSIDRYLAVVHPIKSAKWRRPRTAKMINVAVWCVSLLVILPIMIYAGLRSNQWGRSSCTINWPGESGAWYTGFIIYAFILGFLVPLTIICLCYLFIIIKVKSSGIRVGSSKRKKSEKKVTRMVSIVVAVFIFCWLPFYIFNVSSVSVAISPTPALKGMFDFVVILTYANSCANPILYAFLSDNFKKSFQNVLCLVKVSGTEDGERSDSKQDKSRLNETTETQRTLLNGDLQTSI

One may read the IC50 as the concentration at which inhibition is half-maximal. As to `C[C@H](O)[C@@H]1NC(=O)[C@H](CCCCN)NC(=O)[C@@H](Cc2c[nH]c3ccccc23)NC(=O)[C@H](Cc2ccc(O)cc2)NC(=O)[C@@H](NC(=O)[C@@H](Cc2ccccc2)NC(=O)CN2CCN(CC(=O)O)CCN(CC(=O)O)CCN(CC(=O)O)CC2)CSSCC(C(=O)N[C@H](CO)[C@H](C)O)NC1=O` (stereo partly specified), the IC50 is 0.46 nM and 2.2 nM.
